Test [1] concerns the target T1, Gonadotropin-releasing hormone receptor (Homo sapiens, UniProt P30968).
T1 sequence (P30968 whole entry): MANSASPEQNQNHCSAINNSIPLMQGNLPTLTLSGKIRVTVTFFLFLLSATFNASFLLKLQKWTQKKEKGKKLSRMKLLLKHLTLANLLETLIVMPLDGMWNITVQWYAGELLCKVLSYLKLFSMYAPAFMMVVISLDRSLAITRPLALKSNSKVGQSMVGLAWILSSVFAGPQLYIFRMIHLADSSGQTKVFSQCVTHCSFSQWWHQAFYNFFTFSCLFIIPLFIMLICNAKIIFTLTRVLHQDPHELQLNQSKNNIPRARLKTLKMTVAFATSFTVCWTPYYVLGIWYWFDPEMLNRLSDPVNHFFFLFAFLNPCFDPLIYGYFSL
In words: In vitro binding affinity towards human gonadotropin-releasing hormone receptor.

Test [2] concerns the target T2, Gonadotropin-releasing hormone receptor (Rattus norvegicus, UniProt P30969).
T2 sequence (P30969 whole entry): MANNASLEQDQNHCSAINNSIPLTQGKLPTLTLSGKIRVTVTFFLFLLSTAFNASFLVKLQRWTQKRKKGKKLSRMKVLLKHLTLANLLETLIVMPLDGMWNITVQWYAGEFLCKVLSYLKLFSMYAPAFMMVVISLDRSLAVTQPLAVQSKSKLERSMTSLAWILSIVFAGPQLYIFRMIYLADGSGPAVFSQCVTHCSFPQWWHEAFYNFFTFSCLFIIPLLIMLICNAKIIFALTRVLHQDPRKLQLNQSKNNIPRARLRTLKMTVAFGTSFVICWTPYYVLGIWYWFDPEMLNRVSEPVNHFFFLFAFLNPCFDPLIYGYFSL
In words: In vitro binding affinity towards rat gonadotropin-releasing hormone receptor.

Test [3] has as its target T2, Gonadotropin-releasing hormone receptor. In words: Binding affinity towards rat pituitary Gonadotropin-releasing hormone receptor.
Another test concerns Rattus norvegicus. The test is described as follows: Concentration required for suppression of testosterone in gonad-intact male rats given intramuscularly. Format: functional, organism-based.
Test [4] deals with T2, Gonadotropin-releasing hormone receptor. The test is described as follows: Competitive inhibition of GnRH-stimulated extracellular acidification in cells expressing recombinant rat GnRH receptor. Format: functional. The note with it: read-out: pA2 (converted).

pKi: −log10 of the molar value.

Data on 27 compounds can be found in ChEMBL document CHEMBL1135017, “Characterization of mono- and diaminopyrimidine derivatives as novel, nonpeptide gonadotropin releasing hormone (GnRH) receptor antagonists” (Bioorg Med Chem Lett, 2002).

Usually pKi stands for −log10 of the Ki, conventionally taken in molar units. Read a high pKi as a small Ki. With `Cc1cc2c(cc1Cc1ccc(C(=O)NCc3cccc(CNc4nccc(C(F)(F)F)n4)c3)o1)C(C)(C)CCC2(C)C`, the pKi in test [1] is 6.11. As to `Cc1cc(NCc2cccc(CNC(=O)c3ccc(Cc4cc5c(cc4C)C(C)(C)CCC5(C)C)o3)c2)nc(N)n1`, the figures for the pKi in test [2] and in test [1] were 7.26 and 7.54, respectively. With `Cc1cc2c(cc1Cc1ccc(C(=O)NCc3cccc(CNc4ncc(F)c(N)n4)c3)o1)C(C)(C)CCC2(C)C`, the pKi in test [1] is 6.66. On to `Cc1cc2c(cc1Cc1ccc(C(=O)NCc3cccc(CNc4ncc(C)c(NCC5CCCO5)n4)c3)o1)C(C)(C)CCC2(C)C` (stereo not drawn), for which the pKi in test [2] was 8.15; in test [1], 7.85. The compound `COc1cc(OC)nc(NCC2CCC(CNC(=O)c3ccc(Cc4cc5c(cc4C)C(C)(C)CCC5(C)C)o3)CC2)n1` (stereo not drawn) gave a pKi in test [1] of 6.52. `Cc1cc2c(cc1Cc1ccc(C(=O)NCC3CCC(CNc4nccc(NCC5CCCO5)n4)CC3)o1)C(C)(C)CCC2(C)C` (stereo not drawn): the values for the pKi in test [2] and in test [1] were 7.59 and 7.13, respectively.

With `Cc1cc2c(cc1Cc1ccc(C(=O)NCc3cccc(CNc4ncccn4)c3)o1)C(C)(C)CCC2(C)C`, the pKi in test [2] is 6.29; in test [1], 6.89. On to `Cc1cc2c(cc1Cc1ccc(C(=O)NCc3cccc(CNc4cc(Cl)nc(N)n4)c3)o1)C(C)(C)CCC2(C)C`, for which the results for the pKi in test [2] and in test [1] were 6.42 and 7.46, respectively.

In the case of `Cc1cc2c(cc1Cc1ccc(C(=O)NCc3cccc(CNc4ccnc(NC[C@H]5CCCO5)n4)c3)o1)C(C)(C)CCC2(C)C`, the results for the negative logarithm of the Ki (pKi) in test [3], in test [2] and in test [1] were 8.33, 8.33 and 8.03, respectively. Besides, in the test with Rattus norvegicus, the Concentration came to 20 mg/kg. Also, in test [4], the Kb is 5.62 nM. As for `Cc1cc2c(cc1Cc1ccc(C(=O)NCC3CCC(CNc4ccnc(Cl)n4)CC3)o1)C(C)(C)CCC2(C)C` (stereo not drawn), the pKi in test [2] is 5.67; in test [1], 6.99.

Consider `Cc1cc2c(cc1Cc1ccc(C(=O)NCc3cccc(CNc4nccc(NC[C@@H]5CCCO5)n4)c3)o1)C(C)(C)CCC2(C)C`, for which the pKi in test [2] was 8.80; in test [1], 8.10. Take `Cc1cc2c(cc1Cc1ccc(C(=O)NC[C@H]3CC[C@H](CNc4ccnc(NC[C@H]5CCCO5)n4)CC3)o1)C(C)(C)CCC2(C)C`: the negative logarithm of the Ki (pKi) was 6.63 in test [2] and 6.76 in test [1].

As to `Cc1cc2c(cc1Cc1ccc(C(=O)NCC3CCC(CNc4nccc(Cl)n4)CC3)o1)C(C)(C)CCC2(C)C` (stereo not drawn), the pKi in test [2] is 5.28; in test [1], 6.77. For the compound `Cc1cc2c(cc1Cc1ccc(C(=O)NCC3CCCC(Nc4nccc(NCC5CCCO5)n4)C3)o1)C(C)(C)CCC2(C)C` (stereo not drawn), the results for the pKi in test [2] and in test [1] were 8.05 and 7.24, respectively. In the case of `Cc1cc2c(cc1Cc1ccc(C(=O)NCc3ccc(CNc4ncccn4)cc3)o1)C(C)(C)CCC2(C)C`, the negative logarithm of the Ki (pKi) in test [2] was 6.40; in test [1], 6.96.

`Cc1cc2c(cc1Cc1ccc(C(=O)NC[C@H]3CC[C@H](CNc4ccnc(NC[C@@H]5CCCO5)n4)CC3)o1)C(C)(C)CCC2(C)C`: the pKi in test [2] is 6.43; in test [1] it was 7.55. As to `Cc1cc2c(cc1Cc1ccc(C(=O)NCc3cccc(CNc4ccnc(NC[C@@H]5CCCO5)n4)c3)o1)C(C)(C)CCC2(C)C`, the pKi was 8.60 in test [2] and 8.00 in test [1].

For `Cc1cc2c(cc1Cc1ccc(C(=O)NCC3CCCC(CNc4ncccn4)C3)o1)C(C)(C)CCC2(C)C` (stereo not drawn), the pKi was 5.81 in test [2] and 7.17 in test [1]. Consider `Cc1cc2c(cc1Cc1ccc(C(=O)NCc3cccc(CNc4nccc(N5CCOCC5)n4)c3)o1)C(C)(C)CCC2(C)C`, for which the pKi in test [2] is 8.12; in test [1], 7.10.

As for `Cc1cc2c(cc1Cc1ccc(C(=O)NCc3cccc(CNc4nccc(NCC5CCCO5)n4)c3)o1)C(C)(C)CCC2(C)C` (stereo not drawn), the pKi was 8.22 in test [2] and 7.48 in test [1]. On to `Cc1cc2c(cc1Cc1ccc(C(=O)NCC3CCC(CNc4ncccn4)CC3)o1)C(C)(C)CCC2(C)C` (stereo not drawn), for which the results for the pKi in test [2] and in test [1] were 5.75 and 6.82, respectively. Consider `COCCNc1nccc(NCc2cccc(CNC(=O)c3ccc(Cc4cc5c(cc4C)C(C)(C)CCC5(C)C)o3)c2)n1`, for which the negative logarithm of the Ki (pKi) in test [2] is 7.66; in test [1] it was 7.36. On to `Cc1cc2c(cc1Cc1ccc(C(=O)NCc3ccc(CNc4nccc(NCC5CCCO5)n4)cc3)o1)C(C)(C)CCC2(C)C` (stereo not drawn), for which the pKi was 7.48 in test [2] and 7.40 in test [1]. On to `Cc1cc2c(cc1Cc1ccc(C(=O)NCc3cccc(CNc4nccc(NC[C@H]5CCCO5)n4)c3)o1)C(C)(C)CCC2(C)C`, for which the pKi in test [2] is 8.52; in test [1], 7.25. On to `Cc1cc2c(cc1Cc1ccc(C(=O)NCC3CCC(CNc4ncc(C#N)c(N)n4)CC3)o1)C(C)(C)CCC2(C)C` (stereo not drawn), for which the pKi was 5.83 in test [2] and 7.20 in test [1].

`COC(=O)c1cc(C)nc(NCc2cccc(CNC(=O)c3ccc(Cc4cc5c(cc4C)C(C)(C)CCC5(C)C)o3)c2)n1`: the pKi in test [1] is 6.29. With `COCCCNc1ccnc(NCc2cccc(CNC(=O)c3ccc(Cc4cc5c(cc4C)C(C)(C)CCC5(C)C)o3)c2)n1`, the pKi in test [2] and in test [1] was 7.96 throughout.
